The values that follow come from ChEMBL document CHEMBL1201862, “PubChem BioAssay data set” (2004).

SMILES strings stand for the structures.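 Dose response: 5 concentrations. Exposure: 48 h. Format: 96-well plates. Endpoint: linear interpolation; highest concentration if not reached. At the GI50, growth is halved.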 Active and inactive are the calls of the source. Rule as the data show it: active = GI50 up to about 1.1 µM and inactive = higher.

Some test systems named below: Malme-3M; OVCAR-8; RPMI-8226; HOP-62; OVCAR-5; KM12; CCRF-CEM; UACC-62; NCI-H23; NCI-H460; TK-10; MOLT-4; UO-31; SN12C; SK-MEL-2; ACHN; SW-620; RXF 393; SK-MEL-28; SNB-75.
Common to all, as to test: NCI anticancer screen, dose series, 48 h

Turning to `Cc1cn2c(/C=N/NC(=N)N)c(-c3cccc([N+](=O)[O-])c3)nc2s1`, the GI50 in the assay with Malme-3M is 1.96 µM (inactive); with OVCAR-8, 1.78 µM (inactive); in the assay on RPMI-8226, 3.2 µM (inactive); with HOP-62 it was 1.38 µM (inactive); in the assay with OVCAR-5, 2.07 µM (inactive); in the assay on KM12 it was 0.647 µM (active). Moreover, the GI50 in the assay on CCRF-CEM was 0.532 µM (active); in the assay with UACC-62, 1.69 µM (inactive); with NCI-H23, 2.39 µM (inactive); in the assay with NCI-H460, 2.01 µM (inactive); in the assay with TK-10 it was 2.21 µM (inactive); in the assay with MOLT-4 it was 1.77 µM (inactive). Besides, the GI50 in the assay with UO-31 was 5.62 µM (inactive); in the assay on SN12C, 1.71 µM (inactive); in the assay with SK-MEL-2, 1.96 µM (inactive); in the assay with ACHN, 1.67 µM (inactive); in the assay with SW-620, 0.661 µM (active); with RXF 393, 1.15 µM (inactive). The GI50 with SK-MEL-28 was 1.29 µM (inactive).
Consider `CC(=O)NCCCCN(CCCNC(C)=O)C(=O)CNS(=O)(=O)c1cccc2c(N(C)C)cccc12`, for which the GI50 in the assay with Malme-3M, in the assay on RPMI-8226, with HOP-62, in the assay on OVCAR-5, with CCRF-CEM and with UACC-62 was > 100 µM (inactive) throughout. Also, the GI50 with NCI-H23, in the assay with NCI-H460, with TK-10, with MOLT-4, in the assay with UO-31 and with SN12C was > 100 µM (inactive) each time. Besides, the GI50 in the assay with SK-MEL-2, in the assay with ACHN, in the assay with SW-620, in the assay with RXF 393 and in the assay with SK-MEL-28 was > 100 µM (inactive) each time.
As to `Clc1ccc(/C=c2\nc(-c3ccccc3)n3c2nc2ccccc23)cc1`, the GI50 is > 100 µM (inactive) in the assay on Malme-3M; 32.7 µM (inactive) with OVCAR-8; > 100 µM (inactive) in the assay on RPMI-8226; 38.4 µM (inactive) in the assay with HOP-62; > 100 µM (inactive) in the assay on OVCAR-5; > 100 µM (inactive) with KM12. The GI50 in the assay on CCRF-CEM, in the assay with UACC-62, in the assay on NCI-H23, in the assay with NCI-H460, with TK-10 and in the assay on MOLT-4 was > 100 µM (inactive) in each case. Besides, the GI50 in the assay with UO-31 was > 100 µM (inactive); with SN12C, > 100 µM (inactive); with SK-MEL-2, > 100 µM (inactive); in the assay on ACHN it was 21.9 µM (inactive); in the assay with SW-620, > 100 µM (inactive); in the assay with RXF 393, 28.7 µM (inactive). Also, in the assay on SK-MEL-28, the GI50 is 0.0465 µM (active).
Regarding `CSc1ncc2c(n1)C(C#N)C1Sc3ccccc3N1C2=O` (stereo unspecified), the GI50 in the assay on Malme-3M was > 100 µM (inactive); with SNB-75, 22.9 µM (inactive); in the assay on OVCAR-8, > 100 µM (inactive); in the assay on RPMI-8226 it was > 100 µM (inactive); in the assay with HOP-62, 37.5 µM (inactive); in the assay with OVCAR-5 it was > 100 µM (inactive). Moreover, the GI50 with KM12 was > 100 µM (inactive); in the assay on NCI-H23, 78 µM (inactive); in the assay with NCI-H460 it was > 100 µM (inactive); with TK-10, 90.4 µM (inactive); in the assay with MOLT-4, > 100 µM (inactive); in the assay on UO-31, > 100 µM (inactive). The GI50 with SN12C was > 100 µM (inactive); in the assay with ACHN, 59.4 µM (inactive); in the assay with SW-620 it was > 100 µM (inactive); with RXF 393, 65 µM (inactive); in the assay on SK-MEL-28 it was > 100 µM (inactive).
For `O=C(c1ccco1)N(C(=S)OCc1ccccn1)c1ccccc1`, the GI50 in the assay with Malme-3M is 17.2 µM (inactive); in the assay with OVCAR-8, > 100 µM (inactive); in the assay on RPMI-8226 it was 49.3 µM (inactive); in the assay on HOP-62, 16 µM (inactive); in the assay on OVCAR-5, > 100 µM (inactive); in the assay on KM12, > 100 µM (inactive). For the same compound, the GI50 is 69.8 µM (inactive) in the assay with CCRF-CEM; > 100 µM (inactive) in the assay with UACC-62; > 100 µM (inactive) with NCI-H23; > 100 µM (inactive) in the assay on TK-10; > 100 µM (inactive) in the assay with MOLT-4; 43.9 µM (inactive) in the assay on UO-31. Further, the GI50 in the assay on SN12C is > 100 µM (inactive); with SK-MEL-2 it was > 100 µM (inactive); in the assay on ACHN, 86.1 µM (inactive); in the assay with SW-620, > 100 µM (inactive); in the assay on RXF 393, 30.9 µM (inactive); with SK-MEL-28, > 100 µM (inactive).
With `CCOC(=O)c1ccc(/N=C2/C(=S)N(c3ccc(C(=O)OCC)cc3)C(=N)N2/N=C/c2ccccc2)cc1`, the GI50 is 17.6 µM (inactive) in the assay on Malme-3M; 28.2 µM (inactive) with OVCAR-8; 4.13 µM (inactive) with RPMI-8226; > 10 µM (inactive) in the assay on HOP-62; 20 µM (inactive) in the assay with OVCAR-5; 14.7 µM (inactive) in the assay on KM12. The GI50 in the assay on UACC-62 is 5.7 µM (inactive); in the assay on NCI-H23 it was > 10 µM (inactive); in the assay on NCI-H460 it was 15.5 µM (inactive); with TK-10 it was 23.2 µM (inactive); with UO-31 it was 13.2 µM (inactive); in the assay on SN12C it was 17.9 µM (inactive). In addition, the GI50 in the assay on SK-MEL-2 was 26.1 µM (inactive); with SW-620, 1.51 µM (inactive); in the assay on RXF 393, 5.13 µM (inactive); in the assay with SK-MEL-28 it was > 10 µM (inactive).
As for `O=C(NNc1cn[nH]c(=O)n1)c1cccc2nc3ccccc3nc12`, the GI50 with Malme-3M is 47.5 µM (inactive); in the assay with OVCAR-8, 39.3 µM (inactive); with RPMI-8226, > 100 µM (inactive); in the assay on OVCAR-5 it was > 100 µM (inactive); in the assay on KM12, > 100 µM (inactive); in the assay on CCRF-CEM, 45.7 µM (inactive). The GI50 is 61.5 µM (inactive) in the assay with UACC-62; 45.6 µM (inactive) in the assay with NCI-H23; > 100 µM (inactive) in the assay on NCI-H460; 24.3 µM (inactive) in the assay on TK-10; 11 µM (inactive) in the assay with MOLT-4; 60.1 µM (inactive) in the assay on SN12C. Further, the GI50 in the assay on SK-MEL-2 is 34.9 µM (inactive); with ACHN, 23.3 µM (inactive); in the assay on SW-620 it was > 100 µM (inactive); in the assay on RXF 393, 21.7 µM (inactive); with SK-MEL-28, > 100 µM (inactive).
As to `Cc1cccc(Cl)c1NC(=O)c1cccc([N+](=O)[O-])c1O`, the GI50 in the assay on Malme-3M was 27 µM (inactive); in the assay on SNB-75, 33.9 µM (inactive); with OVCAR-8 it was 48.1 µM (inactive); with RPMI-8226, 21.2 µM (inactive); in the assay with HOP-62, 20.1 µM (inactive); with OVCAR-5, 23.9 µM (inactive). Further, the GI50 in the assay on KM12 was 21.3 µM (inactive); in the assay with CCRF-CEM it was 73.5 µM (inactive); in the assay on UACC-62, 25.4 µM (inactive); in the assay on NCI-H23 it was 28.1 µM (inactive); in the assay on NCI-H460, 29 µM (inactive); with MOLT-4, 29.2 µM (inactive). Moreover, the GI50 was 19.8 µM (inactive) in the assay on UO-31; 31.9 µM (inactive) with SN12C; 31.9 µM (inactive) in the assay on ACHN; 59 µM (inactive) in the assay on SW-620; 16.7 µM (inactive) with RXF 393; 41.5 µM (inactive) with SK-MEL-28.
